# Data reported in PMC10947113, “A Bivalent Activatable Fluorescent Probe for Screening and Intravital Imaging of Chemotherapy‐Induced Cancer Cell Death” (Angewandte Chemie (Weinheim an Der Bergstrasse, Germany), 2021).
# Starred links: 1 amine or outer side, 2 acyl side, 3 side chain; linkers in the order of their positions; H or OH if unused. Non-standard residues stand in square brackets, D forms with d. Residues, ends and D or L forms follow the SMILES beside them. X1 = CC1=CC(C)=[N+]2C1=C(c1cccc(-c3[nH]c4ccccc4c3C[C@H](N[*:1])C(=O)[*:2])c1)c1ccc(-c3ccc(C)s3)n1[B-]2(F)F
# How the values were obtained:
# [1] = Stability analysis in mouse serum; type: in vitro ADME; conditions: 24 h, 37 °C, 500 rpm shaker, 50 μM (method) or 25 μM (Figure S14), CH3CN protein precipitation, HPLC traces and fluorescence emission (exc 520 nm)
# Experimental: Figure S14. Stability analysis of Apotracker Red in mouse serum. HPLC traces of Apotracker Red (25 μM) after incubation in PBS buffer or mouse serum for 24 h at 37 °C . […]
# fluorescence emission of Apotracker Red before and after incubation in mouse serum and […]
# (1 picture or pasted object on this page, not shown here) […]
# r.t., followed by separation from erythrocytes by centrifugation for 10 min, 2, 000 g at r.t. Sera were transferred into new tubes and stored at - 20°C until use. 50 μM Apotracker Red in PBS or in serum were incubated fo r 24 h at 37 °C on a vertical shaker at 500 rpm . A s control s, seru m without peptide and freshly aliquoted 50 μM Apotracker Red in mouse serum were used.
# Fluorescence spectra were recorded after excitation at 520 nm. For HPLC measurements, proteins were precipitated by addition of CH3CN and centrifugation at 300 g fo r 5 m in a t r.t. and the resulting supernatants were injected.
# Lipid layer assays . […] The limit of detection (LoD) of Apotracker Red for PtdSer was determined by fluorescence titration of serial dilutions of Pt dSer layers after incubation with Apotracker Red (1 μM, PBS) at 25 °C for 40 min. The LoD was calculated using the equation LoD = (3 × σ)/k, where σ is the standard deviation of blank solutions and k is the slope of the linear regression fit. Data was recorded on Cytation 3 (exc: 530 nm). […]
# MCF7 cells = test: Cell viability, TACS MTT cell proliferation assay, MCF7; type: cell-based, human; conditions: different working concentrations, 3 h, means ± SD (n=5), ns for p>0.05
# Experimental: (§1) Figure S15. Cell viability experiments (TACS® MTT cell proliferation assay) after incubation of Apotracker Red in breast cancer cell lines (a: MCF7 cells, b: MDA-MB-231 cells) at different concentrations for 3 h. Data presented as means ± SD (n=5). P values obtained from one- way ANOVA using multiple comparisons (ns for p>0.05).
# (§2) Figure S16. Quantification of E GFP+ macrophages in tumours from untreated and cisplatin-treated mice by time- lapse imaging on a spinning disk confocal microscope (λexc: 488 nm). Data presented as means ± SD of 8 random areas in 2- 3 mice per group (untreated or treated with 10 μg g-1 cisplatin for 72 h). […]
# MDA-MB-231 cells = test: Cell viability, TACS MTT cell proliferation assay, MDA-MB-231; type: cell-based, human; conditions: different working concentrations, 3 h, means ± SD (n=5), ns for p>0.05
# Experimental: as §1, §2
structure (smiles),measurement,setting,value
CC1=CC(C)=[N+]2C1=C(c1cccc(-c3[nH]c4ccccc4c3C[C@@H]3NC(=O)[C@H](Cc4ccccc4)NC(=O)[C@H](Cc4c[nH]c5ccccc45)NC(=O)[C@H](CCCCN)NC(=O)[C@H](CCCCN)NC(=O)[C@H](CCCNC(=N)N)NC(=O)CNC3=O)c1)c1ccc(-c3ccc(C)s3)n1[B-]2(F)F [Apotracker Red] (cyclo(F[X1]GRKKW)),proteolytic stability in mouse serum,[1],good proteolytic stability for up to 24 h
same,"cell toxicity (MTT cell viability), MCF7",MCF7 cells,did not cause cell toxicity
same,"cell toxicity (MTT cell viability), MDA-MB-231",MDA-MB-231 cells,did not cause cell toxicity
